“And” between values parts separate entries of the source, which are not always exact repeats. Equal values may be shown once.
Columns and labels:
Experiment in all cases: PamChip tyrosine kinase microarray
Type in all cases: biochemical
Conditions in all cases: 0.1 µM, HL60 lysate
[1] = molecular target: T1, InSR (P06213) (Homo sapiens, UniProt P06213)
T1 construct: purchased PamGene (PamChip PTK array, Upstream Kinase Analysis)
Procedure, shortened: (§1)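 HL60 (AML) cell lysate was spiked with compound at 0.001, 0.01, 0.1, 1, 10 and 50 µM, or 2% v/v DMSO as control, then profiled in technical replicates on a tyrosine kinase peptide array of 196 phosphosites. Kinase activity was inferred from peptide-set changes using an upstream kinase tool.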

[2] = molecular target: T2, BTK (Q06187) (Homo sapiens, UniProt Q06187)
T2 construct: purchased PamGene (PamChip PTK array, Upstream Kinase Analysis)
Procedure, shortened: as §1

[3] = molecular target: T3, FRK (P42685) (Homo sapiens, UniProt P42685)
T3 construct: purchased PamGene (PamChip PTK array, Upstream Kinase Analysis)
Procedure, shortened: as §1

[4] = molecular target: T4, Kit (P10721) (Homo sapiens, UniProt P10721)
T4 construct: purchased PamGene (PamChip PTK array, Upstream Kinase Analysis)
Procedure, shortened: as §1

[5] = molecular target: T5, Axl (P30530) (Homo sapiens, UniProt P30530)
T5 construct: purchased PamGene (PamChip PTK array, Upstream Kinase Analysis)
T5 sequence (P30530 26-894): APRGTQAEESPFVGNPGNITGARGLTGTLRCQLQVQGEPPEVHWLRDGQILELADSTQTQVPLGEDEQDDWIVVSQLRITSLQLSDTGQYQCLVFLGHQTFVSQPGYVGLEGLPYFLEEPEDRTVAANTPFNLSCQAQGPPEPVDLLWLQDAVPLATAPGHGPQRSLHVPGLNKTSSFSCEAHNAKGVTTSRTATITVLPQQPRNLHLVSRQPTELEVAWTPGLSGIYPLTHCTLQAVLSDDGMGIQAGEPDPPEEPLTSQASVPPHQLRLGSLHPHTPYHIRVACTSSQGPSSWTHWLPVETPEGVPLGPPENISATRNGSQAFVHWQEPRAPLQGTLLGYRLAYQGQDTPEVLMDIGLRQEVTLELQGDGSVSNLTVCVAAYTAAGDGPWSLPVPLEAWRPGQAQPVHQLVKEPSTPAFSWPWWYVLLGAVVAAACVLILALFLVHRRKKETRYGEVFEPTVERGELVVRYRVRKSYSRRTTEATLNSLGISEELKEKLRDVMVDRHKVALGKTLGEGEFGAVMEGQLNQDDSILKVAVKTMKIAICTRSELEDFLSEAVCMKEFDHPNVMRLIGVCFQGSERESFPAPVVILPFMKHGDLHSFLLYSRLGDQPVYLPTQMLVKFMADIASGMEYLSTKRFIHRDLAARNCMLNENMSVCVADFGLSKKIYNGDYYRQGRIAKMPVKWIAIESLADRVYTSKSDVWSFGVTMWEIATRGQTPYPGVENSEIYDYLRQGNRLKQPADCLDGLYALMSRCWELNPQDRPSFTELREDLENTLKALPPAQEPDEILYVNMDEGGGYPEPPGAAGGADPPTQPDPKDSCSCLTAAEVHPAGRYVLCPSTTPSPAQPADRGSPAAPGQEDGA
Procedure, shortened: as §1

[6] = molecular target: T6, Abl (P00519) (Homo sapiens, UniProt P00519)
T6 construct: purchased PamGene (PamChip PTK array, Upstream Kinase Analysis)
Procedure, shortened: as §1

[7] = molecular target: T7, DDR1 (Q08345) (Homo sapiens, UniProt Q08345)
T7 construct: purchased PamGene (PamChip PTK array, Upstream Kinase Analysis)
Procedure, shortened: as §1

T3 sequence (P42685 whole entry): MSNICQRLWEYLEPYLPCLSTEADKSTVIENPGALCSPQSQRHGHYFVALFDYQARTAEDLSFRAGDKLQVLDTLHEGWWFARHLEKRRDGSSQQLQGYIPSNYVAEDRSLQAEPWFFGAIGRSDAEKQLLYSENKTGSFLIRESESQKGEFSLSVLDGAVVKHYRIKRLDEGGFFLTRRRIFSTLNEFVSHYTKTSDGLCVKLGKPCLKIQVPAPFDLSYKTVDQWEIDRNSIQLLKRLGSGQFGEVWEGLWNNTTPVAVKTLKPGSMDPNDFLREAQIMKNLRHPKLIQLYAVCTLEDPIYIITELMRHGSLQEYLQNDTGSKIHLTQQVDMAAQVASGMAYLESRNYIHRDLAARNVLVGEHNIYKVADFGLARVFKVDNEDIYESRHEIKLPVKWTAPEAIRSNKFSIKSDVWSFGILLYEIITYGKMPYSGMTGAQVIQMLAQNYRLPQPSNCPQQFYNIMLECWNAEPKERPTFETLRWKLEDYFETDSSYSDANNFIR
T4 sequence (P10721 26-976): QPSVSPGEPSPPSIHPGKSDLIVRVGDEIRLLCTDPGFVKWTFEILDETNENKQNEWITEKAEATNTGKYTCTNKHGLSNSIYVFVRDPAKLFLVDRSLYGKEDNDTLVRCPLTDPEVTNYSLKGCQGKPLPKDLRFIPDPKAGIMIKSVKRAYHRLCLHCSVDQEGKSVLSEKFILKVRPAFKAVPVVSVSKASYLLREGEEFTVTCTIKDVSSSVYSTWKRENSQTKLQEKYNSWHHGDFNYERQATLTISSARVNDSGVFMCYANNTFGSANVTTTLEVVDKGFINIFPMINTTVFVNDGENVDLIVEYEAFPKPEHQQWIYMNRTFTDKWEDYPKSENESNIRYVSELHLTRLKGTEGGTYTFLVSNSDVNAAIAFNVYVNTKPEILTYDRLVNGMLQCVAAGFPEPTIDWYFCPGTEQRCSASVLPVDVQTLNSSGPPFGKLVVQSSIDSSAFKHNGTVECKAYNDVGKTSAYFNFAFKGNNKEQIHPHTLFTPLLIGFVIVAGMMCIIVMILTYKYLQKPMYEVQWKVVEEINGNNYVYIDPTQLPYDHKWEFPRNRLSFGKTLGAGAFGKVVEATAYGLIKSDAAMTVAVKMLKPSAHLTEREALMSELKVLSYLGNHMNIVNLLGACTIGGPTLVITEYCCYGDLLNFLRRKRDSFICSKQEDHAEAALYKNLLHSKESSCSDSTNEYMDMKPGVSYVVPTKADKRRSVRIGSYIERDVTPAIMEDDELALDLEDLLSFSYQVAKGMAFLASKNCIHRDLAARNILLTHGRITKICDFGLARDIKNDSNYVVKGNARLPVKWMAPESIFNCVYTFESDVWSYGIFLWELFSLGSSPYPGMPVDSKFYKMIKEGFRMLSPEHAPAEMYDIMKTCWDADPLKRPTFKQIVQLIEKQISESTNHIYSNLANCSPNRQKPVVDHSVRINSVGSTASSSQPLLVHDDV
T2 sequence (Q06187 whole entry): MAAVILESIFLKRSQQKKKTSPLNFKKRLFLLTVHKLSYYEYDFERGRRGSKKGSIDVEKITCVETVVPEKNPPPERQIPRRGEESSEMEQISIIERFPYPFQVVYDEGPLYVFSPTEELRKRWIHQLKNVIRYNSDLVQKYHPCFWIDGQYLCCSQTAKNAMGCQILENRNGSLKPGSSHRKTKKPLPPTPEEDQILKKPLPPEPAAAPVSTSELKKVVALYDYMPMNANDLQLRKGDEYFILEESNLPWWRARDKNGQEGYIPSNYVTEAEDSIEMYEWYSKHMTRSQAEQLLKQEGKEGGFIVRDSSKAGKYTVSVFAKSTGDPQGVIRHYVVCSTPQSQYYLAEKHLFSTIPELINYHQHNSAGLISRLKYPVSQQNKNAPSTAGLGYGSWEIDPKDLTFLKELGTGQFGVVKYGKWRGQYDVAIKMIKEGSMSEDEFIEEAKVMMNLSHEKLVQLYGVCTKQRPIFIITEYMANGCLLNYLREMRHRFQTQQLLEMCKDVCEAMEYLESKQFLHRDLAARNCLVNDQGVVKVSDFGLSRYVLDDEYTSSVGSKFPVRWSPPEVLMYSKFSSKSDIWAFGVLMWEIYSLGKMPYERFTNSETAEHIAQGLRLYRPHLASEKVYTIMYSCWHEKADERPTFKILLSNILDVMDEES
T1 sequence (P06213 28-1382): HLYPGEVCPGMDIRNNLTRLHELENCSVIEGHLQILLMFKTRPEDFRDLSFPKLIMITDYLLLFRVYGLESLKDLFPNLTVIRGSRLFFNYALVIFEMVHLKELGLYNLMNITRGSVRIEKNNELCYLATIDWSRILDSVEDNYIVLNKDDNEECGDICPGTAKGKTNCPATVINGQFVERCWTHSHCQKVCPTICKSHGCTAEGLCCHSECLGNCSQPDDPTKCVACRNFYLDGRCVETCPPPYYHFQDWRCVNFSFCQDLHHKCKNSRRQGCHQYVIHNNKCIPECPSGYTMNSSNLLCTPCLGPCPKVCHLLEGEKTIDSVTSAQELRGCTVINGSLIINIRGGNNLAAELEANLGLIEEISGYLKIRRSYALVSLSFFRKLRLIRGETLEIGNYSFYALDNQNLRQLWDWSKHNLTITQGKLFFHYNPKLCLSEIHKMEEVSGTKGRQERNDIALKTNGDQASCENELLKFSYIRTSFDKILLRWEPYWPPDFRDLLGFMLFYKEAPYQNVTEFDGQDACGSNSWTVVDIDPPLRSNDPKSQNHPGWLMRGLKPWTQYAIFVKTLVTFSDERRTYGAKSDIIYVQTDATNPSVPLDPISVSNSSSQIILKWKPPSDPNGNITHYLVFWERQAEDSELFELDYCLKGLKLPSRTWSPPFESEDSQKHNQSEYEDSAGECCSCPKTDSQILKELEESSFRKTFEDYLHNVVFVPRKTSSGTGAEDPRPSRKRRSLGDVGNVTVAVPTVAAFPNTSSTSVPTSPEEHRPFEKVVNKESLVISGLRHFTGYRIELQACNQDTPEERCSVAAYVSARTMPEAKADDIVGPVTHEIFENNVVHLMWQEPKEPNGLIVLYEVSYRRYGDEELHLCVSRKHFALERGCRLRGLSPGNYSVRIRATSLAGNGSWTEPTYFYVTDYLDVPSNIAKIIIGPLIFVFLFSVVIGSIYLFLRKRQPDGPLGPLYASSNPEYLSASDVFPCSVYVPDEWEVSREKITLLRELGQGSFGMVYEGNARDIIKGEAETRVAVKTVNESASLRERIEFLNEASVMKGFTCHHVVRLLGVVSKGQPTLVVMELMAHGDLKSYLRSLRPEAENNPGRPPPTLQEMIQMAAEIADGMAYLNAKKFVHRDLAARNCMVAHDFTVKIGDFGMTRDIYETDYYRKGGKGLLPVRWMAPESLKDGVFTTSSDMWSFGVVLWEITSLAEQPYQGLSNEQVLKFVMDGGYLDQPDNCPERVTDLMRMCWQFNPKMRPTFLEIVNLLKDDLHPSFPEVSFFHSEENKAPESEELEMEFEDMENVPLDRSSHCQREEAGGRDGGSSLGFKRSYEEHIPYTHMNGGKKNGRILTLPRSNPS
T7 sequence (Q08345 19-913): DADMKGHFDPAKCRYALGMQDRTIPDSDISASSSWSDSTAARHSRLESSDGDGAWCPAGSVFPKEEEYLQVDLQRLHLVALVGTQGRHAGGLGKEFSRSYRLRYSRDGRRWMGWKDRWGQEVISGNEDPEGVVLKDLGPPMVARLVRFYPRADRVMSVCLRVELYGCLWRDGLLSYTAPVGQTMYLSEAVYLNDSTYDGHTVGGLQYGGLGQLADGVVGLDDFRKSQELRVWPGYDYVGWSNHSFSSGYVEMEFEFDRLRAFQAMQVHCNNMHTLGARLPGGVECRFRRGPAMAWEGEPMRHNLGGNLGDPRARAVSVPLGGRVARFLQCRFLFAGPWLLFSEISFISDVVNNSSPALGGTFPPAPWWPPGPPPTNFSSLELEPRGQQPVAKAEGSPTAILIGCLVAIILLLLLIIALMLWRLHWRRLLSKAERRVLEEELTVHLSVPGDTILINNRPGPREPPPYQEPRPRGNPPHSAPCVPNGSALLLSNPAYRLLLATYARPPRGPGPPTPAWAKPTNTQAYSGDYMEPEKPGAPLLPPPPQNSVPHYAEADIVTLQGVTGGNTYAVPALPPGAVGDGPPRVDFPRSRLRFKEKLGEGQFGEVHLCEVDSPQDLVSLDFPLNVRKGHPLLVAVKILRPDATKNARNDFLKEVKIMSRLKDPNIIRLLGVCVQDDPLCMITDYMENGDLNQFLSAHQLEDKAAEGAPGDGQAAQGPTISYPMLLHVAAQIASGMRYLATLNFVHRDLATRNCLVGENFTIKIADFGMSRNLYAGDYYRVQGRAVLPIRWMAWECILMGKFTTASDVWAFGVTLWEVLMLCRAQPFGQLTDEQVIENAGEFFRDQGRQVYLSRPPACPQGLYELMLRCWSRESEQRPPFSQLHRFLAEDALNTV

Question: Which “Mean Final score (Kinase score)” value [1] does the source give for `COc1ccc(/C=C2\N=C(C)N(c3ccc(CC(=O)NCc4ccccc4)cc3)C2=O)cc1` [Compound 4c, (Z)-N-Benzyl-2-(4-(4-(4-methoxybenzylidene)-2-methyl-5-oxo-4,5-dihydro-1H-imidazol-1-yl)phenyl)acetamide] here?
Answer: 2.117

Question: What about the “Mean Kinase Statistic” value [1] of the same compound?
Answer: -0.9506

Question: And the “Mean Significance Score” value [1]?
Answer: 2.048

Question: What about the “Mean Specificity Score” value [1] of the same compound?
Answer: 0.02144

Question: And the “Mean Significance Score” value [2]?
Answer: 1.957

Question: And the “Mean Specificity Score” value [2]?
Answer: 0.668

Question: And the “Mean Final score (Kinase score)” value ([2]; listed as KIM-161)?
Answer: 2.76 and 2.762

Question: And the “Mean Significance Score” value [3]?
Answer: 2.048

Question: What about the “Mean Specificity Score” value [3] of the same compound?
Answer: 1.533

Question: And the “Mean Final score (Kinase score)” value ([3]; listed as KIM-161)?
Answer: 3.45 and 3.453

Question: What about the “Mean Final score (Kinase score)” value [4] of the same compound?
Answer: 2.581

Question: And the “Mean Kinase Statistic” value [4]?
Answer: -1.291

Question: And the “Mean Significance Score” value [4]?
Answer: 2.048

Question: And the “Mean Specificity Score” value [4]?
Answer: 0.5837

Question: And the “Mean Final score (Kinase score)” value [5]?
Answer: 2.569

Question: What about the “Mean Kinase Statistic” value [5] of the same compound?
Answer: -1.219

Question: And the “Mean Significance Score” value [5]?
Answer: 2.048

Question: What about the “Mean Specificity Score” value [5] of the same compound?
Answer: 0.5684

Question: And the “Mean Final score (Kinase score)” value [6]?
Answer: 2.191

Question: And the “Mean Kinase Statistic” value [6]?
Answer: -1.128

Question: What about the “Mean Significance Score” value [6] of the same compound?
Answer: 1.966

Question: What about the “Mean Specificity Score” value [6] of the same compound?
Answer: 0.1837

Question: And the “Mean Final score (Kinase score)” value [7]?
Answer: 2.262

Question: And the “Mean Kinase Statistic” value [7]?
Answer: -1.216

Question: What about the “Mean Significance Score” value [7] of the same compound?
Answer: 1.955

Question: What about the “Mean Specificity Score” value [7] of the same compound?
Answer: 0.3662

Reference: publication PMC8766756, “Insights on Cancer Cell Inhibition, Subcellular Activities, and Kinase Profile of Phenylacetamides Pending 1H-Imidazol-5-One Variants” (Frontiers in Pharmacology, 2022)
